Non-standard residues stand in square brackets, D forms with d. Residues, ends and D or L forms follow the SMILES beside them. No end group written: not given here. pS = N[C@@H](COP(=O)(O)O)C(=O)O
Experiments:
Recombinant bovine HSC70 [1] = target: T1, Recombinant bovine HSC70 (Bos taurus, UniProt P19120); test: Surface plasmon resonance, direct binding of peptides to immobilized HSC70; settings: SPR BIAcore 3000, HSC70 immobilized via thiol groups on CM5, HBS-EP pH 7.4, 25°C, peptide 1.56 to 12.5 µM, 1:1 Langmuir model; for kon: read-out: association rate constant (kon); for koff: read-out: dissociation rate constant (koff)
T1 construct: purchased Stressgen
Description: To assess P140 binding to HSC70, we investigated the binding parameters and kinetics by surface plasmon resonance. HSC70 was immobilized onto the sensor chip via one of its four thiol groups, and different concentrations of P140 and 131–151 peptides were injected in the flux followed by a dissociation phase (see the overlay surface plasmon resonance plots of the raw data in Figure 1B). […] Similar data were obtained when biotinylated P140 was on the chip and HSC70 in solution. Thus, in this in vitro system, both peptides bind with medium affinity (µM range) to HSC70. […] Of significant importance, no binding was observed between P140 and Hsp70.
BIAcore 3000 system (Biacore AB) was used to evaluate the binding of P140 peptide to HSC70 protein. Sensor chip CM5, surfactant P20, amine coupling kit containing N-hydroxysuccinimide (NHS) and N-ethyl-N′-dimethylaminopropyl carbodiimide (EDC), 2-(2-pyridinyldithio)ethaneamine (PDEA) and ethanolamine were from Biacore AB. Biosensor assays were performed with HBS-EP buffer as running buffer (10 mM HEPES, 150 mM NaCl, 3 mM EDTA, 0.005% surfactant P20, pH 7.4). The different compounds were diluted in the running buffer. The sensor chip surface was regenerated after each experiment by injecting 10 µL of 10 mM HCl. Recombinant bovine HSC70 (Stressgen) was immobilized on flow cells of a CM5 sensor chip through its thiol groups using 35 µL PDEA in 50 mM borate buffer, pH 8.3 on the NHS/EDC-activated matrix. Then, 35 µL of HSC70 (100 µg/mL in formate buffer, pH 4.3) were injected until a response of 13,000 response units (RU) corresponding to 13 ng/mm^2 of HSC70 was immobilized. Twenty µL of a 50 mM cysteine/1 M NaCl solution was used to saturate unoccupied sites on the chip. The direct binding measurement of P140 peptides to HSC70 was carried out at 25°C with a constant flow rate of 20 µL/min. P140 peptide and analogues were injected in the flux at different concentrations for 3 min, followed by a dissociation phase of 3 min. The kinetic parameters were calculated using the BIAeval 3.1 software on a personal computer. Analysis was performed using the simple 1∶1 Langmuir binding model. The specific binding profiles were obtained after subtracting the response signal from the control empty channel and from blank-buffer injection. The fitting to each model was judged by the χ square value and randomness of residue distribution compared to the theoretical model.

[2] = Solubility limit by dynamic light scattering; assay type: physicochemical
Description: The solubility of P140 and 131–151 peptides was determined at 20 and 37°C using dynamic light scattering measurements. […] The integrity of P140, as measured in saline and PBS by high-performance liquid chromatography from the area of the peak corresponding to the intact peptide, remained intact during at least 60 days at 37°C (Figure 2D).
The synthesis and purification of P140 peptide (RIHMVYSKRpSGKPRGYAFIEY; produced under Good Manufacturing Practice conditions), and of peptides 131–151 ([…]) and ScP140 (YVSRYFGpSAIRHEPKMKIYRG) were described previously, [3], [7]. For the biotin-labeled peptides, the biotin moiety was introduced at the end of peptide assembly as a Fmoc-Lys(biotin)-OH derivative. Homogeneity of peptides was checked by analytical high-performance liquid chromatography, and their identity was assessed by matrix-assisted laser desorption and ionization time-of-flight (TOF) mass spectrometry using a Protein TOF apparatus (Bruker Spectrospin). The solubility limits of both peptides in the cell culture medium RPMI 1640, PBS and distilled water were determined at 20 and 37°C using dynamic light scattering measurements.

[3] = target: HSC70 (heat-shock cognate 71-kDa protein) (UniProt P63017); test: biotin-peptide on cells, lysis, avidin-agarose pull-down; settings: reference: non-phosphorylated biotin-peptide 131-151; sites S140
MRL/lpr mice = test system: MRL/lpr mice; set-up: method as in PMID 2397613; settings: cited from earlier work
SLE patients = settings: human, in vivo; cited from earlier work
recombinant bovine HSC70 [4] = target: T2, recombinant bovine HSC70 (bovine, UniProt P19120 1-650); test: SPR; BIAcore 3000; recombinant bovine HSC70 immobilised on CM5 chip through its thiol groups (13,000 RU); peptides injected (1.56 to 12.5 µM) 3 min, dissociation 3 min; 25°C, 20 µL/min; HBS-EP pH 7.4; 1:1 Langmuir model; settings: both partners purified
T2 construct: heat-shock cognate HSC70 protein, bovine, recombinant (Stressgen); Immobilised through one of its four thiol groups in the SPR experiment; no tag is named; also called recombinant HSC70 protein; source: bought: Stressgen (recombinant)
T2 sequence (P19120 whole entry): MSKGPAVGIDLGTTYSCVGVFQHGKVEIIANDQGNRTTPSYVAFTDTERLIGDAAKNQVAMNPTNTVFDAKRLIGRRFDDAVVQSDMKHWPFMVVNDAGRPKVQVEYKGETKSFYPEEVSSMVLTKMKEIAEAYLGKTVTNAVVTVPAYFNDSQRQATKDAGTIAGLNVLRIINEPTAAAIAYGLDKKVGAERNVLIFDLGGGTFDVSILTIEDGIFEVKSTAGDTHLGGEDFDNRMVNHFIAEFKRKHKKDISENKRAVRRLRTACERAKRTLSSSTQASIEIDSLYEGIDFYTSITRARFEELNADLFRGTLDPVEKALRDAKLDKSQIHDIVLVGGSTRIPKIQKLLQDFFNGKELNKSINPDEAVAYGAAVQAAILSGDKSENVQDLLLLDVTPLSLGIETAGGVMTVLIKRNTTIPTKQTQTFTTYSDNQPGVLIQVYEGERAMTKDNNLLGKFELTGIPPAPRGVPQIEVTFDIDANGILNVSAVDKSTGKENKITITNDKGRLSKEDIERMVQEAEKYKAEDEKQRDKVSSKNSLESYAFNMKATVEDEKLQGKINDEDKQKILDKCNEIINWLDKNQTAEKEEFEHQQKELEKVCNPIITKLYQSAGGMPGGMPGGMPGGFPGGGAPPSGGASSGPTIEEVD

T1 sequence (P19120 whole entry): as above

| Molecule | kon (Recombinant bovine HSC70 [1]) [M⁻¹ s⁻¹] | koff (Recombinant bovine HSC70 [1]) [s⁻¹] | Kd (recombinant bovine HSC70 [4]) [µM] | other results |
| --- | --- | --- | --- | --- |
| RIHMVYSKRSGKPRGYAFIEY [131–151] | 606 | 0.00407 |  | solubility ([2]; 200 µM-solution in water, PBS and culture medium (RPMI 1640), 20 and 37°C): highly soluble |
| U1-70K small nuclear ribonucleoparticle protein 131-151 (from UniProt Q62376) biotin-P140 (pS140) |  |  |  | binding against the reference [3]: same |
| N=C(N)NCCCCCCC(=O)NC(O)C(=O)NCCCCNCCCN (centres unmarked) [15-deoxyspergualin] |  |  |  | progression of polyclonal B cell activation and lupus nephropathy (MRL/lpr mice): suppressed the progression; treated patients with non-severe infectious episodes (SLE patients): two of three |
| RIHMVYSKR[pS]GKPRGYAFIEY (pS is the phosphoserine; also called phosphopeptide P140; source: synthetic peptide) [P140 peptide (U1-70K snRNP protein residues 131-151, phosphorylated on Ser140)] |  |  | 7.32 |  |

Further lines, with some results ahead:

| kon (Recombinant bovine HSC70 [1]) [M⁻¹ s⁻¹] | koff (Recombinant bovine HSC70 [1]) [s⁻¹] | Kd (recombinant bovine HSC70 [4]) [µM] | Molecule | other results |
| --- | --- | --- | --- | --- |
| 530 | 0.00388 |  | CC[C@H](C)[C@H](NC(=O)[C@H](Cc1ccccc1)NC(=O)[C@H](C)NC(=O)[C@H](Cc1ccc(O)cc1)NC(=O)CNC(=O)[C@H](CCCNC(=N)N)NC(=O)[C@@H]1CCCN1C(=O)[C@H](CCCCN)NC(=O)CNC(=O)[C@H](COP(=O)(O)O)NC(=O)[C@H](CCCNC(=N)N)NC(=O)[C@H](CCCCN)NC(=O)[C@H](CO)NC(=O)[C@H](Cc1ccc(O)cc1)NC(=O)[C@@H](NC(=O)[C@H](CCSC)NC(=O)[C@H](Cc1c[nH]cn1)NC(=O)[C@@H](NC(=O)[C@@H](N)CCCNC(=N)N)[C@@H](C)CC)C(C)C)C(=O)N[C@@H](CCC(=O)O)C(=O)N[C@@H](Cc1ccc(O)cc1)C(=O)O [P140] (HELM PEPTIDE1{R.I.H.M.V.Y.S.K.R.[O=C([C@H](COP(=O)(O)O)N[*:1])[*:2]].G.K.P.R.G.Y.A.F.I.E.Y}$$$$V2.0) | solubility ([2]; in water): highly soluble |
|  |  | 6.72 | RIHMVYSKRSGKPRGYAFIEY (also called non-phosphorylated analogue; source: synthetic peptide) [non-phosphorylated peptide 131-151 of the U1-70K snRNP protein] |  |
